Data published in ChEMBL document CHEMBL5465560, “Selectivity Literature for EUbOPEN Chemogenomic Library” (2024).

Legend:
[1] = molecular target: Dual specificity protein kinase CLK4 (Homo sapiens, UniProt Q9HAZ1); assay: Selectivity interaction (ProQinase) EUB0000171b CLK4
[2] = molecular target: Misshapen-like kinase 1 (Homo sapiens, UniProt Q8N4C8); assay: Selectivity interaction (ProQinase) EUB0000171b MINK1
[3] = molecular target: Histone-lysine N-methyltransferase KMT5B (Homo sapiens) (UniProt Q4FZB7); assay: Selectivity interaction (Transferase panel (protein, RNA, and DNA methyltransferases. and EP300 (acetyltransferase))) EUB0000270b SUV420H1
Sequence of Histone-lysine N-methyltransferase KMT5B (Homo sapiens) (Q4FZB7 whole entry, looked up): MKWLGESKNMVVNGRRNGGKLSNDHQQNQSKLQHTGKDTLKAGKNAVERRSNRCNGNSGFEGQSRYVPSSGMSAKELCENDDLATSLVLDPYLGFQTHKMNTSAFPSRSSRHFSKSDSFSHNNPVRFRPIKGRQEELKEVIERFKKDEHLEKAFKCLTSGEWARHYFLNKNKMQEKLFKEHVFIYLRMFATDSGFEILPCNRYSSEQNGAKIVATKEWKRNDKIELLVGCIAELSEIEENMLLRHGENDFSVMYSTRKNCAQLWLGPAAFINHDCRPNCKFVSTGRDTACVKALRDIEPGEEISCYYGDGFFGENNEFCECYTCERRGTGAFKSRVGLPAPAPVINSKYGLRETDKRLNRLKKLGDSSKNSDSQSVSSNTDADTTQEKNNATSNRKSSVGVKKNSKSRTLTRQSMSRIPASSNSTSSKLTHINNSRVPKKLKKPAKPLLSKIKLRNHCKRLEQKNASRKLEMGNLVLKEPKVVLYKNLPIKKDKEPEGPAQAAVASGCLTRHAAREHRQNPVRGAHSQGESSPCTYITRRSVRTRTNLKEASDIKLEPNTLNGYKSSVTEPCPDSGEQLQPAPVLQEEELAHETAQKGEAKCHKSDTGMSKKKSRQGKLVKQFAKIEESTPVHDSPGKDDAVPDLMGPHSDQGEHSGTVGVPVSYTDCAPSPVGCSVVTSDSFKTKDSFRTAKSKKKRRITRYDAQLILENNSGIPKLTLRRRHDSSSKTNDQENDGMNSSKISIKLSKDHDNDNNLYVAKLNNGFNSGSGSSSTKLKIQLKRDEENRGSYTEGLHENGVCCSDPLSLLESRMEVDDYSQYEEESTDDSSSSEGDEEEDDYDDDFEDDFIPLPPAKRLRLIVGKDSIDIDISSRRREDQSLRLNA

[4] = system: Epidermal growth factor receptor (Homo sapiens), P00533 [UNDEFINED MUTATION]; assay: Selectivity interaction (KinomeScan (DiscoverX)) EUB0000229b EGFR; details: at 1 µM
Sequence of Epidermal growth factor receptor (Homo sapiens), P00533 [UNDEFINED MUTATION] (P00533 whole entry, looked up, change not shown): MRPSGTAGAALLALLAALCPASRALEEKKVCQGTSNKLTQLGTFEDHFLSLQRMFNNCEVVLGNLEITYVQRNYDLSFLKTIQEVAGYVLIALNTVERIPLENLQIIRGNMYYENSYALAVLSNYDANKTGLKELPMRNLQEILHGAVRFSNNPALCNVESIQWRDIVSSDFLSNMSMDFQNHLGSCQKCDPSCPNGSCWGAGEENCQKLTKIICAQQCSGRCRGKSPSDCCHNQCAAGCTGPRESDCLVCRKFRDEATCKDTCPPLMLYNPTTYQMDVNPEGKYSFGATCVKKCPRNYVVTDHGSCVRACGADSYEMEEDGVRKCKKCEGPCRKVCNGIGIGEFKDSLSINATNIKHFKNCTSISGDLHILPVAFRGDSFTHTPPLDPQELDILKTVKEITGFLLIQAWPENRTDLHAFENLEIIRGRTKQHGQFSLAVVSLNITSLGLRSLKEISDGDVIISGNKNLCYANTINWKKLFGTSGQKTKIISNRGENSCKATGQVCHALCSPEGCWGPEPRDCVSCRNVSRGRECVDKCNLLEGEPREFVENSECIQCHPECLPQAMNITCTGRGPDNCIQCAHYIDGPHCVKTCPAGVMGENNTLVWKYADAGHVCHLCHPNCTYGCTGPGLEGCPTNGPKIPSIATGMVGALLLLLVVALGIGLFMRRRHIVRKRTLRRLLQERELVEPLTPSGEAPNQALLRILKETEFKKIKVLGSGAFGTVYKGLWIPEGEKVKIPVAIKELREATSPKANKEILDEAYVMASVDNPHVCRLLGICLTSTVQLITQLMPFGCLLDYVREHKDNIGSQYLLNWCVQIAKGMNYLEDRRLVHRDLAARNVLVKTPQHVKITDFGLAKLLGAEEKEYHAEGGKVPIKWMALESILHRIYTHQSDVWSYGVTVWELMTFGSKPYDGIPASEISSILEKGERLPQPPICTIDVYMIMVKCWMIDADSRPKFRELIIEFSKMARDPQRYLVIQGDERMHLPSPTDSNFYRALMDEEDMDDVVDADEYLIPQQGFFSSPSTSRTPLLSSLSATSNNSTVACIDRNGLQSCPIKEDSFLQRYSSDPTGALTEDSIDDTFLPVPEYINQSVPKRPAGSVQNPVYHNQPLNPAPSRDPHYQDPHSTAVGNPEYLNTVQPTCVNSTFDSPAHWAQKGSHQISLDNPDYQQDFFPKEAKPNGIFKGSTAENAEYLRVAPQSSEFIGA

[5] = molecular target: Serine/threonine-protein kinase MARK2 (Homo sapiens) (UniProt Q7KZI7); assay: Selectivity interaction (KinomeScan (DiscoverX)) EUB0000229b MARK2; details: at 10 µM
Sequence of Serine/threonine-protein kinase MARK2 (Homo sapiens) (Q7KZI7 whole entry): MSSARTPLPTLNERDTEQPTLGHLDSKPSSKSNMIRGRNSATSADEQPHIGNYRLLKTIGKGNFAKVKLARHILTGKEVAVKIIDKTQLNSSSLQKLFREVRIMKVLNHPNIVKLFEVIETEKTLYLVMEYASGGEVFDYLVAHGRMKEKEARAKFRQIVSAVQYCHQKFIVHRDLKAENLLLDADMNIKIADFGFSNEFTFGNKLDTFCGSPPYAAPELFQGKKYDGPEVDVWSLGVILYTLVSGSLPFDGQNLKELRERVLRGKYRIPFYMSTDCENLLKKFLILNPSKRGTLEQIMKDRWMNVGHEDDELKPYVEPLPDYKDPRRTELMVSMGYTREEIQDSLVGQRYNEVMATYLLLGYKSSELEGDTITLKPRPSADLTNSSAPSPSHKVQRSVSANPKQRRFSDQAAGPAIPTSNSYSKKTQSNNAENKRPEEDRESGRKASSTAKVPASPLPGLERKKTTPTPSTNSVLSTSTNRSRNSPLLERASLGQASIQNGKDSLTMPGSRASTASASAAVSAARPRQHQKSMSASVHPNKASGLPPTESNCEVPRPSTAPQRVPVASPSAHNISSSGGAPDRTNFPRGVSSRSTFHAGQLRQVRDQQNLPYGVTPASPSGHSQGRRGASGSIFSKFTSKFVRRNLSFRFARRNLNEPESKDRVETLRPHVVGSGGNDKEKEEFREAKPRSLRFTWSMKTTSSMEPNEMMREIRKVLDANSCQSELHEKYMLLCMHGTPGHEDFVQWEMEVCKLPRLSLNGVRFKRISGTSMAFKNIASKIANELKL

[6] = molecular target: Tyrosine-protein kinase JAK2 (Homo sapiens, UniProt O60674); details: at 10 µM
[7] = molecular target: T1, Mitogen-activated protein kinase kinase kinase 19 (Homo sapiens) (UniProt Q56UN5); details: at 10 µM
T1 sequence (whole entry): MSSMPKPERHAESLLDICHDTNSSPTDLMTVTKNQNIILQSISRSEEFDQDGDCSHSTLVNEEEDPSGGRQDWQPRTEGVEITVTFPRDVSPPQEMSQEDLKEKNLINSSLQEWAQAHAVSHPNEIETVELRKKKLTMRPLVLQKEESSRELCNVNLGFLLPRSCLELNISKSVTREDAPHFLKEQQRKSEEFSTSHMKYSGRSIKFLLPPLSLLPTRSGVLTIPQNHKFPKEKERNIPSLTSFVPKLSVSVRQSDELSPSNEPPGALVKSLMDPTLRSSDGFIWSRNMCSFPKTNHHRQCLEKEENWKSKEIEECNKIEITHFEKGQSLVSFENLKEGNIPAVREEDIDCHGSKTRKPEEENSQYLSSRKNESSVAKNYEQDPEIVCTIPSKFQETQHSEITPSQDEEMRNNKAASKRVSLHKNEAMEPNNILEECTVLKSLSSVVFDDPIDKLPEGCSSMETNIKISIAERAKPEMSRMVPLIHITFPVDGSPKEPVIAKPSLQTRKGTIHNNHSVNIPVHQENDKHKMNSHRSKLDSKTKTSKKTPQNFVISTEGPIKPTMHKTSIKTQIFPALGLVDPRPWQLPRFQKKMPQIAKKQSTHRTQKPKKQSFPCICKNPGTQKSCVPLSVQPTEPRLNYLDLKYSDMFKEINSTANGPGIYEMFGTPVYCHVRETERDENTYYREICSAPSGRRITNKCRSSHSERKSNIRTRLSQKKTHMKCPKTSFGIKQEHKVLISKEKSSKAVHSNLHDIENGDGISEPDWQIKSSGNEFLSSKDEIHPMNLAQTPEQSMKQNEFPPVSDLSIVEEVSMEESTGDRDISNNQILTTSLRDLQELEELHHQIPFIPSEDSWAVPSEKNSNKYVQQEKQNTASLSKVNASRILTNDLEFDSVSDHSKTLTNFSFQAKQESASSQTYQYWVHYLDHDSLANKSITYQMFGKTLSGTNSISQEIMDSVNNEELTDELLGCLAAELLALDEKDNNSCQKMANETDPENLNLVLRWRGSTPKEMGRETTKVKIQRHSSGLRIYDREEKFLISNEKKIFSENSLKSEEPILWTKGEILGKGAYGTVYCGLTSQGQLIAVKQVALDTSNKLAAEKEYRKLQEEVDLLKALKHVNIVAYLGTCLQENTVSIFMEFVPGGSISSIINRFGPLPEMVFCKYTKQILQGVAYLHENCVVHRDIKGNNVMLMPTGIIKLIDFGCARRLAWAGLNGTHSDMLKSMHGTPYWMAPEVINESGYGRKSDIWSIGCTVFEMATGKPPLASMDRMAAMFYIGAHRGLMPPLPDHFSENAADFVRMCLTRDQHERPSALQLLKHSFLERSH

[8] = molecular target: Ribosomal protein S6 kinase alpha-2 (Homo sapiens) (UniProt Q15349); assay: Selectivity interaction (KinomeScan (DiscoverX)) EUB0000618a RPS6KA2; details: at 10 µM

Sequence of Misshapen-like kinase 1 (Q8N4C8 whole entry, looked up): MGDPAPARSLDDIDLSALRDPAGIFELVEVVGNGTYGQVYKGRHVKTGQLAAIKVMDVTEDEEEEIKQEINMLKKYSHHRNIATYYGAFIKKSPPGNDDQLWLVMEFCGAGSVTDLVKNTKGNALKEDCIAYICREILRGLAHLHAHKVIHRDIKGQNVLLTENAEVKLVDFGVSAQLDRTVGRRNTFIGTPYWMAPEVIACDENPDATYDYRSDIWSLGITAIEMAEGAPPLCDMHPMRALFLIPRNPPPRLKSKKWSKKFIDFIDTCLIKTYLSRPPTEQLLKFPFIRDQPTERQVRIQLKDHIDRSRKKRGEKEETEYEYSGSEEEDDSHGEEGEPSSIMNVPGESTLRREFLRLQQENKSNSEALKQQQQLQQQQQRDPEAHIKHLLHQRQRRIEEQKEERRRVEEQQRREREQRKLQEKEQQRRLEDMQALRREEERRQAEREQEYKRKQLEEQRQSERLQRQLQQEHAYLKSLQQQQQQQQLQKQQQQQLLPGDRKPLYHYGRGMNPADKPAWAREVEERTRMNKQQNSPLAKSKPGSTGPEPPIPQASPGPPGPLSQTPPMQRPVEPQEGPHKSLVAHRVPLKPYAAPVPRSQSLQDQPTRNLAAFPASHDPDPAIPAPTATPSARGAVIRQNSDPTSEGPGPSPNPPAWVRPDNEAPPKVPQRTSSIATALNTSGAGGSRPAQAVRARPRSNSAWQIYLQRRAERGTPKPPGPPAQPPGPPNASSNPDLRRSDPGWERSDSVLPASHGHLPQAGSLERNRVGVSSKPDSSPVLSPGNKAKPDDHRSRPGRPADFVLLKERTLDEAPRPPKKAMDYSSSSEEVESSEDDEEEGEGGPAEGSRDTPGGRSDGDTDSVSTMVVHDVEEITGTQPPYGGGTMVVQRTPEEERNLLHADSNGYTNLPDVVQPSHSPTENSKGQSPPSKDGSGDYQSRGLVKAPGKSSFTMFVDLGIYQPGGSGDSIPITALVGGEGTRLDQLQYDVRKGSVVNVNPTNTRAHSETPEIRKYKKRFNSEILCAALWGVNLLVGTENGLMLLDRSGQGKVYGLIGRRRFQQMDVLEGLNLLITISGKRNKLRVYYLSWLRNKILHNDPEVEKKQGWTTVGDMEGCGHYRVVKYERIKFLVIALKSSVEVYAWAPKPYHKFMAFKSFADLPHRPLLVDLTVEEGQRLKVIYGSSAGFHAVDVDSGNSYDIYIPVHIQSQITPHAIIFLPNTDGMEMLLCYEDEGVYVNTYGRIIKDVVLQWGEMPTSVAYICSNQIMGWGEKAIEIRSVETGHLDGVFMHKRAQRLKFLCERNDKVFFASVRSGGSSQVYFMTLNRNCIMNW
Sequence of Dual specificity protein kinase CLK4 (Q9HAZ1 whole entry, looked up): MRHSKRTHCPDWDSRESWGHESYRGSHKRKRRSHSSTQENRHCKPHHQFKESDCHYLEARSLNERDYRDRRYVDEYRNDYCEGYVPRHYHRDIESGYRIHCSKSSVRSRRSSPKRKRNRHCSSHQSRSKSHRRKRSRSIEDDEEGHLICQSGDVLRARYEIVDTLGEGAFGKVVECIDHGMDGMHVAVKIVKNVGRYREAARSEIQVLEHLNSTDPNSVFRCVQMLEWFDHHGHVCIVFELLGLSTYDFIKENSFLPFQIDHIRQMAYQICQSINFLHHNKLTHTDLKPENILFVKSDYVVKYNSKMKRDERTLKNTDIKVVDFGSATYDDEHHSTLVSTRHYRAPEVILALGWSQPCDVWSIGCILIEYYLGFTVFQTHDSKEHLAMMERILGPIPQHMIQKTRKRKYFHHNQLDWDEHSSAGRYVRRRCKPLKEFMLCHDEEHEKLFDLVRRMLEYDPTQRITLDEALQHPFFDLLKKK

`C=CC(=O)Nc1cccc(C(=O)Nc2ccc(Nc3cc(-c4[nH]c(SC)nc4C)ccn3)cc2)c1` showed a % of control ([1]; at 1 µM) of 46%, a % of control ([1]; at 5 µM) of 20% and a % of control ([2]; at 1 µM) of 75%. For the same compound, the % of control ([2]; at 5 µM) was 44%.

For `Cc1cc(CN)cc(C)c1-c1ncn(C)c1-c1cncn1C`, the % activity ([3]; at 1 µM) was > 90% and the % activity ([3]; at 10 µM) was > 80%.

Work on `COc1cc(N(C)c2ccnc3ccc(C(F)(F)F)cc23)cc(OC)c1OC` yielded a % binding [4] of 92% and a % binding [5] of 85%.

In the case of `Cc1cc([C@@H](C)Nc2ccccc2C(=O)O)c2nc(N3CCOCC3)cc(=O)n2c1` [AZD-6482], the % of control [6] is reported as 62% and the % of control [7] is reported as 100%.

`O[C@H]1CC[C@H](Nc2ncc3nc(Nc4c(F)cc(F)cc4F)n([C@H]4CCOC4)c3n2)CC1` was tested, and the % of control [8] was 91%.
